Experimental data from patent US6814969B2, “Immunologically significant herpes simplex virus antigens and methods for using same” (University of Washington, priority 2001, dated 2004).

Legend:
Assay type in all cases: cell-based, human
[1] = test system: TCC 4.2E1; assay: T-cell proliferation ([3H]thymidine incorporation), TCC 4.2E1; conditions: FIG. 3; peptides used at 3 μM; autologous EBV-LCL APC
Protocol: (§1) Triplicate proliferation assay wells contained 10^4 cloned T-cells, 10^5 irradiated (3300 rad) PBMC or 2.5×10^4 irradiated (8000 rad) EBV-LCL as antigen presenting cells (APC), and antigen in 200 μl T-cell media (D. M. Koelle et al., 1997, Human. Immunol., 53:195-205) in 96-well U-bottom plates. When heat-killed bacteria were used as antigen, the equivalent of 10^5 cfu/well (prior to inactivation) was added and gentamicin (20 μg/ml) was included. After 72 hours, 1 μCi/well ^[3]H thymidine was added for 18 hours, cells were harvested, and incorporation of thymidine evaluated by liquid scintillation counting. Standard deviations were less than 10% of the mean values. Results are reported as mean cpm or as delta cpm=mean cpm for experimental antigen minus mean cpm for control antigen. Control antigen was mock-infected cell lysate for whole viral antigens and pUEX2-derived β-galactosidase for recombinant protein preparations. To determine the reactivity of bulk-cultured lesion-derived T-cells, fusion proteins or control β-galactosidase were used at 10 μg/ml. […]

[2] = test system: TCC 4.2E1; assay: Cytolysis assay (4-hour 51Cr release), CD4 TCC 4.2E1; conditions: E:T 20:1
Protocol: (§2) Cytolysis assays were performed in triplicate using 4-hour [^51]Cr release as described (D. M. Koelle et al., 1993, J. Clin. Invest., 91:961-968). […] W. Kwok et al., 1996,J. Exp. Med., 183:1253-1258). The effector to target ratio was 20:1. Spontaneous release was less than 28%.

[3] = test system: lesion-derived T cells; assay: Recognition of ICP0 epitopes by lesion-derived T cells; conditions: 743-751: CD8+ T cells, HLA allele B*0702
Text: The recognition event involves HLA allele B*0702, which is relatively common (approximately 10%) in the human population.

[4] = test system: TCC RH.13; assay: T-cell proliferation, TCC RH.13
Protocol: (§3) Triplicate proliferation assay wells contained 10^4 cloned T-cells, 10^5 irradiated (3300 rad) PBMC or 2.5×10^4 irradiated (8000 rad) EBV-LCL as antigen presenting cells (APC), and antigen in 200 μl T-cell media (D. M. Koelle et al., 1997, Human. Immunol., 53:195-205) in 96-well U-bottom plates. When heat-killed bacteria were used as antigen, the equivalent of 10^5 cfu/well (prior to inactivation) was added and gentamicin (20 μg/ml) was included. After 72 hours, 1 μCi/well ^[3]H thymidine was added for 18 hours, cells were harvested, and incorporation of thymidine evaluated by liquid scintillation counting. Standard deviations were less than 10% of the mean values. Results are reported as mean cpm or as delta cpm=mean cpm for experimental antigen minus mean cpm for control antigen. Control antigen was mock-infected cell lysate for whole viral antigens and pUEX2-derived β-galactosidase for recombinant protein preparations. To determine the reactivity of bulk-cultured lesion-derived T-cells, fusion proteins or control β-galactosidase were used at 10 μg/ml. To determine HLA restricting loci, HLA DR-specific mAb L243 (V. G. Preston et al., 1978, J. Virol., 28:499-517), HLA DP-specific mAb B7.21 (A. J. Watson et al., 1983, Nature, 304:358-360), or HLA DQ-specific mAb SpV-L3 (H. Spits et al., 1984, Eur. J. Immunol., 14:299-304) were used as described (D. M. Koelle et al., 1994, J. Virol. 68:2803-2810).
Three epitopes within VP16, all HSV-2 type-specific were previously identified (K. R. Jerome et al., 1998, J. Virol., 72:436-441), and proliferative responses to full-length VP16 in bulk cultures of genital HSV-2 lesion-infiltrating lymphocytes from four of seven (57%) patients were detected (D. M. Koelle et al., 1998, J. Clin. Invest., 101:1500-09). Additional peptide epitopes were sought within VP16 by two strategies. The first strategy involved screening panels of clones recovered from lesion vesicle fluid for reactivity with recombinant VP16 of HSV-2 followed by epitope mapping with peptides. […]

[5] = test system: TCC RH.13; assay: Cytolysis assay (4-hour 51Cr release), CD4 TCC RH.13; conditions: HSV-2 infected or 1 μM peptide, E:T 20:1
Protocol: as §2

[6] = test system: TCC KM.7; assay: Cytolysis assay (4-hour 51Cr release), CD4 TCC KM.7; conditions: HSV-2 infected or 1 μM peptide, E:T 20:1
Protocol: as §2

[7] = test system: TCC KM.7; assay: T-cell proliferation, TCC KM.7; conditions: VP16 1-492 at 1 μg/ml, β-gal-VP16 180-492 at 1:1,000, peptides at 1 μM
Protocol: as §1, with “preparations.” for “preparations. To determine the reactivity of bulk-cultured lesion-derived T-cells, fusion proteins or control β-galactosidase were used at 10 μg/ml.”
(§4) Three epitopes within VP16, all HSV-2 type-specific were previously identified (K. R. Jerome et al., 1998, J. Virol., 72:436-441), and proliferative responses to full-length VP16 in bulk cultures of genital HSV-2 lesion-infiltrating lymphocytes from four of seven (57%) patients were detected (D. M. Koelle et al., 1998, J. Clin. Invest., 101:1500-09). […]

[8] = test system: TCC ESL4.34; assay: T-cell proliferation, TCC ESL4.34; conditions: VP16 1-492 at 1 μg/ml, β-gal-VP16 180-492 at 1:1,000, peptides at 1 μM
Protocol: as §3

[9] = test system: TCC ESL4.34; assay: Cytolysis assay (4-hour 51Cr release), CD4 TCC ESL4.34; conditions: HSV-2 infected or 1 μM peptide, E:T 10:1
Protocol: Cytolysis assays were performed in triplicate using 4-hour [^51]Cr release as described (D. M. Koelle et al., 1993, J. Clin. Invest., 91:961-968). […] W. Kwok et al., 1996,J. Exp. Med., 183:1253-1258). […] Spontaneous release was less than 28%.

[10] = test system: TCC ESL3.334; assay: Cytolysis assay (4-hour 51Cr release), CD4 TCC ESL3.334; conditions: HSV-2 infected or 1 μM peptide, E:T 20:1
Protocol: as §2

[11] = test system: TCC ESL3.334; assay: T-cell proliferation, TCC ESL3.334; conditions: VP16 1-492 at 1 μg/ml, β-gal-VP16 180-492 at 1:1,000, peptides at 1 μM
Protocol: as §3

[12] = test system: TCC 1A.B.25; assay: T-cell proliferation, TCC 1A.B.25; conditions: VP16 1-492 at 1 μg/ml, β-gal-VP16 180-492 at 1:1,000, peptides at 1 μM
Protocol: as §3

[13] = test system: TCC 1A.B.25; assay: Cytolysis assay (4-hour 51Cr release), CD4 TCC 1A.B.25; conditions: HSV-2 infected or 1 μM peptide, E:T 20:1
Protocol: as §2

[14] = test system: bulk cultures of lesion-infiltrating T-cells; assay: Reactivity of bulk cultures of lesion-infiltrating T-cells with HSV antigens; conditions: four biopsies, day 5 of a buttock recurrence of HSV-2, patient 1; fusion proteins at 10 μg/ml
Protocol: as §1

[15] = test system: TCC SB.17; assay: T-cell proliferation, TCC SB.17; conditions: VP16 1-492 at 1 μg/ml, β-gal-VP16 180-492 at 1:1,000, peptides at 1 μM
Protocol: as §1, with “preparations.” for “preparations. To determine the reactivity of bulk-cultured lesion-derived T-cells, fusion proteins or control β-galactosidase were used at 10 μg/ml.”
as §4

[16] = test system: TCC BM.17; assay: T-cell proliferation, TCC BM.17; conditions: VP16 1-492 at 1 μg/ml, β-gal-VP16 180-492 at 1:1,000, peptides at 1 μM
Protocol: as §1, with “preparations.” for “preparations. To determine the reactivity of bulk-cultured lesion-derived T-cells, fusion proteins or control β-galactosidase were used at 10 μg/ml.”
as §4

[17] = allogeneic mismatched EBV-LCL targets

Molecule: GGPVGAGGRSHAPPARTPKMTR (GGPVGAGGRSHAPARTPKMTR) [VP22 105-126]
- stimulation of TCC 4.2E1 by overlapping peptides [1]: stimulatory
- percent specific release ([2]; allogeneic mismatched EBV-LCL targets, HSV-2 infected or 1 μM peptide): −1.7%
- percent specific release ([2]; autologous EBV-LCL targets, HSV-2 infected or loaded with 1 μM peptide): 44.2%

Molecule: ICP0 743-751: amino acids 743-751 of ICP0 (QGTLVGALD; UniProt P08393 743-751, looked up, fragment)
- recognition by lesion-derived T cells [3]: specific recognition

Molecule: VP16 185-197: HSV-2 VP16 (UL48) peptide, amino acids 185-197
- delta cpm [3H] thymidine incorporation compared to media ([4]; TCC RH.13, VP16 1-492 at 1 μg/ml, β-gal-VP16 180-492 at 1:1,000, peptides at 1 μM): 55,614 cpm
- stimulation of TCC RH.13 by VP16 peptides ([4]; epitope mapping with peptides): stimulatory
- percent specific release [5, 17]: 0.3%
- percent specific release ([5]; autologous EBV-LCL targets): 55.2%

Molecule: VP16 209-221: HSV-2 VP16 (UL48) peptide, amino acids 209-221
- percent specific release [6, 17]: 4.3%
- percent specific release ([6]; autologous EBV-LCL targets): 43.6%
- delta cpm [3H] thymidine incorporation compared to media [7]: 10,075 cpm

Molecule: VP16 393-405: previously reported HSV-2 VP16 peptide epitope, amino acids 393-405 (LVAPRMSFLSAGQ; UniProt P68336 393-405, looked up, fragment)
- delta cpm [3H] thymidine incorporation compared to media [8]: 95,942 cpm
- percent specific release [9, 17]: 0.6%
- percent specific release ([9]; autologous EBV-LCL targets): 10.4%

Molecule: VP16 430-444: previously reported HSV-2 VP16 peptide epitope, amino acids 430-444 (EEVDMTPADALDDFD; UniProt P68336 430-444, looked up, fragment)
- percent specific release [10, 17]: 0.3%
- percent specific release ([10]; autologous EBV-LCL targets): 33.6%
- delta cpm [3H] thymidine incorporation compared to media [11]: 27,283 cpm

Molecule: VP16 431-440: previously reported HSV-2 VP16 peptide epitope, amino acids 431-440 (EVDMTPADAL; UniProt P68336 431-440, looked up, fragment)
- delta cpm [3H] thymidine incorporation compared to media [12]: 38,664 cpm
- percent specific release [13, 17]: 2.1%
- percent specific release ([13]; autologous EBV-LCL targets): 42.2%

B1: VP22 105-190: fusion protein containing VP22 amino acids 105-190 (protein)
chain: GGPVGAGGRSHAPPARTPKMTRGAPKASATPATDPARGRRPAQADSAVLLDAPAPTASGRTKTPAQGLAKKLHFSTAPPSPTAPWT
modifications: left off: large carriers
- reactivity of bulk lesion-infiltrating T-cell cultures [14]: showed reactivity

B2: β-gal-VP16 180-492: β-galactosidase fusion protein with HSV-2 VP16 180-492 (protein)
chain: YLRASVRQLHRQAHMRGRNRDLREMLRTTIADRYYRETARLARVLFLHLYLFLSREILWAAYAEQMMRPDLFDGLCCDLESWRQLACLFQPLMFINGSLTVRGVPVEARRLRELNHIREHLNLPLVRSAAAEEPGAPLTTPPVLQGNQARSSGYFMLLIRAKLDSYSSVATSEGESVMREHAYSRGRTRNNYGSTIEGLLDLPDDDDAPAEAGLVAPRMSFLSAGQRPRRLSTTAPITDVSLGDELRLDGEEVDMTPADALDDFDLEMLGDVESPSPGMTHDPVSYGALDVDDFEFEQMFTDAMGIDDFGG
modifications: left off: large carriers
- delta cpm [3H] thymidine incorporation compared to media [12]: 41,123 cpm
- delta cpm [3H] thymidine incorporation compared to media [11]: 16,434 cpm
- delta cpm [3H] thymidine incorporation compared to media [15]: 12,178 cpm
- delta cpm [3H] thymidine incorporation compared to media [16]: 45,958 cpm
